Experimental data from US11739100B2, “2,3-dihydro-1h-imidazo{1,2-a}pyrimidin-5-one and this 1,2,3,4-tetrahydropyrimido{1,2-a}pyrimidin-6-one derivatives comprising a substituted morpholine, preparation thereof and pharmaceutical use thereof” (SANOFI, priority 2012, dated 2023).

Biological target: T1, recombinant Vps34 (Homo sapiens, UniProt Q8NEB9)
T1 construct: purchased Invitrogen PV5126
Assay: Phosphorylation of phosphatidylinositol (PI) by Vps34 in vitro, ADP detected by TR-FRET (HTRF Transcreener ADP)
Type: biochemical
Details: 10 μM ATP, 55 μg/ml PI, approximately 3 nM Vps34, 1 hour at ambient temperature; absolute IC50, mean of two independent experiments; read-out: IC50 activity range

T1 sequence (Q8NEB9 whole entry): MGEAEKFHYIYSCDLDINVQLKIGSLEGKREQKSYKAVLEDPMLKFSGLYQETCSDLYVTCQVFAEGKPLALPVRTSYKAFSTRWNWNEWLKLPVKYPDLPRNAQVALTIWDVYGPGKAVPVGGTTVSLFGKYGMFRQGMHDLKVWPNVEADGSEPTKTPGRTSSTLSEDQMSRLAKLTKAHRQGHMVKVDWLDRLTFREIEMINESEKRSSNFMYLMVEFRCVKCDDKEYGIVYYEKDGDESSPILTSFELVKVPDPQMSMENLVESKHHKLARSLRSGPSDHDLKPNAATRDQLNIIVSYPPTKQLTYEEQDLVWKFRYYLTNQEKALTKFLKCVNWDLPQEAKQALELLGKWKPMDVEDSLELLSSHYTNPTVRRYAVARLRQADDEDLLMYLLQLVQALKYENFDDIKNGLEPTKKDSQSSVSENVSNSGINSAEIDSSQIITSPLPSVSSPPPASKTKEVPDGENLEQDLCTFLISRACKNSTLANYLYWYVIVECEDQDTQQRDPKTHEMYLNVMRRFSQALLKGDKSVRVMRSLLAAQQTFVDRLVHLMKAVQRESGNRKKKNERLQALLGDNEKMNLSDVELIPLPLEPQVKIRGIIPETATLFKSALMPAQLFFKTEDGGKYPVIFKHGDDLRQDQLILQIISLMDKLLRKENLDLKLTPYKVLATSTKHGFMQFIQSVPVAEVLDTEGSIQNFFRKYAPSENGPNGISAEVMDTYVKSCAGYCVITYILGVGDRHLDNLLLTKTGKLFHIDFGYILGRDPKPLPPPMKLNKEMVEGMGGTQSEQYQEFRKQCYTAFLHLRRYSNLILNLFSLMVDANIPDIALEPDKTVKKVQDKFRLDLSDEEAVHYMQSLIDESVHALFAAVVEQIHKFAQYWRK

SMILES | IC50 [nM]
C[C@@H]1COCCN1c1cc(=O)n2c(n1)N(CC(=O)N1CC3(CCO3)C1)[C@H](C(F)(F)F)CC2 [Example 330, (S)-2-((R)-3-Methyl-morpholin-4-yl)-9-[2-(1-oxa-6-aza-spiro[3.3]hept-6-yl)-2-oxoethyl]-8-trifluoromethyl-6,7,8,9-tetrahydropyrimido-[1,2-a]pyrimidin-4-one] | 10 to 100
C[C@@H]1COCCN1c1cc(=O)n2c(n1)N(Cc1ncco1)[C@H](C(F)(F)F)CC2 [Example 77, (S)-2-((R)-3-Methyl-morpholin-4-yl)-9-oxazol-2-ylmethyl-8-trifluoromethyl-6,7,8,9-tetrahydro-pyrimido[1,2-a]-pyrimidin-4-one] | 10 to 100
O=c1cc(N2CC3CCC(C2)O3)nc2n1CC[C@@H](C(F)(F)F)N2Cc1ccno1 [Example 164, (S)-9-Isoxazol-5-yl-methyl-2-(8-oxa-3-azabicyclo[3.2.1]oct-3-yl)-8-trifluoromethyl-6,7,8,9-tetrahydro-pyrimido[1,2-a]-pyrimidin-4-one] | 10 to 100
C[C@@H]1COCCN1c1cc(=O)n2c(n1)N(CC(=O)C1CCOC1)[C@H](C(F)(F)F)CC2 (stereo partly drawn) [Example 269, (S)-2-((R)-3-Methyl-morpholin-4-yl)-9-[2-oxo-2-(tetrahydro-furan-3-yl)ethyl]-8-trifluoromethyl-6,7,8,9-tetrahydro-pyrimido[1,2-a]-pyrimidin-4-one] | 10 to 100
O=C(CN1c2nc(N3CC4CCC(C3)O4)cc(=O)n2CC[C@H]1C(F)(F)F)C1CC1 [Example 271, (S)-9-(2-Cyclopropyl-2-oxoethyl)-2-(8-oxa-3-azabicyclo[3.2.1]oct-3-yl)-8-trifluoromethyl-6,7,8,9-tetrahydro-pyrimido[1,2-a]-pyrimidin-4-one] | 10 to 100
O=c1cc(N2CC3CCC(C2)O3)nc2n1CC[C@@H](C(F)(F)F)N2Cc1ccn(C(F)F)n1 [Example 167, (S)-9-(1-Difluoromethyl-1H-pyrazol-3-ylmethyl)-2-(8-oxa-3-aza-bicyclo[3.2.1]oct-3-yl)-8-trifluoromethyl-6,7,8,9-tetrahydro-pyrimido[1,2-a]-pyrimidin-4-one] | 10 to 100
C[C@@H]1COCCN1c1nc2n(c(=O)c1F)CC[C@@H](C(F)(F)F)N2Cc1ccnc(Cl)c1 [Example 41, (S)-9-(2-Chloro-pyridin-4-ylmethyl)-3-fluoro-2-((R)-3-methyl-morpholin-4-yl)-8-trifluoromethyl-6,7,8,9-tetrahydro-pyrimido[1,2-a]-pyrimidin-4-one] | < 10
C[C@@H]1COCCN1c1cc(=O)n2c(n1)N(CC(=O)c1cccnc1)[C@H](C(F)(F)F)CC2 [Example 11, (S)-2-((R)-3-Methyl-morpholin-4-yl)-9-(2-oxo-2-pyridin-3-yl-ethyl)-8-trifluoromethyl-6,7,8,9-tetrahydro-pyrimido[1,2-a]-pyrimidin-4-one] | < 10
Cc1cc(CN2c3nc(N4[C@H](C)COC[C@H]4C)cc(=O)n3CC[C@H]2C(F)(F)F)on1 [Example 155, (S)-2-((3R,5R)-3,5-Dimethylmorpholin-4-yl)-9-(3-methyl-isoxazol-5-ylmethyl)-8-trifluoromethyl-6,7,8,9-tetrahydro-pyrimido[1,2-a]-pyrimidin-4-one] | < 10
C[C@@H]1COCCN1c1cc(=O)n2c(n1)N(Cc1ccc(F)cn1)[C@H](C(F)(F)F)CC2 [Example 92, (S)-9-(5-Fluoropyridin-2-ylmethyl)-2-((R)-3-methylmorpholin-4-yl)-8-trifluoromethyl-6,7,8,9-tetrahydro-pyrimido[1,2-a]-pyrimidin-4-one] | < 10
Cc1nocc1CN1c2nc(N3CCOC[C@H]3C)c(F)c(=O)n2CC[C@H]1C(F)(F)F [Example 62, (S)-3-Fluoro-9-(3-methylisoxazol-4-yl-methyl)-2-((R)-3-methylmorpholin-4-yl)-8-trifluoromethyl-6,7,8,9-tetrahydro-pyrimido[1,2-a]-pyrimidin-4-one] | < 10
C[C@@H]1COC[C@@H](C)N1c1cc(=O)n2c(n1)N(Cc1ccon1)[C@H](C(F)(F)F)CC2 [Example 313, (S)-2-((3R,5R)-3,5-Dimethylmorpholin-4-yl)-9-isoxazol-3-yl-methyl-8-trifluoromethyl-6,7,8,9-tetrahydropyrimido-[1,2-a]pyrimidin-4-one] | < 10
C[C@@H]1COCCN1c1cc(=O)n2c(n1)N(CC(=O)N1CCOCC1)[C@H](C(F)(F)F)CC2 [Example 234, (S)-2-((R)-3-Methyl-morpholin-4-yl)-9-(2-morpholin-4-yl-2-oxo-ethyl)-8-trifluoromethyl-6,7,8,9-tetrahydro-pyrimido[1,2-a]-pyrimidin-4-one] | 10 to 100
C[C@@H]1COCCN1c1nc2n(c(=O)c1F)[C@@H](C(F)(F)F)CCN2CC(=O)C1CCOCC1 [Example 132, (R)-3-Fluoro-2-((R)-3-methylmorpholin-4-yl)-9-[2-oxo-2-(tetrahydro-pyran-4-yl)ethyl]-6-trifluoromethyl-6,7,8,9-tetrahydro-pyrimido[1,2-a]-pyrimidin-4-one] | < 10
C[C@@H]1COC[C@@H](C)N1c1cc(=O)n2c(n1)N(Cc1ccnc(Cl)c1)[C@H](C(F)(F)F)CC2 [Example 157, (S)-9-(2-Chloro-pyridin-4-ylmethyl)-2-((3R,5R)-3,5-dimethyl-morpholin-4-yl)-8-trifluoromethyl-6,7,8,9-tetrahydro-pyrimido[1,2-a]-pyrimidin-4-one] | < 10
C[C@@H]1COCCN1c1cc(=O)n2c(n1)N(Cc1nnc(C3CC3)o1)[C@H](C(F)(F)F)CC2 [Example 142, (S)-9-(5-Cyclopropyl-[1,3,4]oxadiazol-2-yl-methyl)-2-((R)-3-methylmorpholin-4-yl)-8-trifluoromethyl-6,7,8,9-tetrahydro-pyrimido[1,2-a]-pyrimidin-4-one] | < 10

Results, then the molecule that gave them:

IC50 [nM] | SMILES
< 10 | Cc1nocc1CN1CC[C@H](C(F)(F)F)n2c1nc(N1CCOC[C@H]1C)cc2=O [Example 143, (R)-9-(3-Methyl-isoxazol-4-ylmethyl)-2-((R)-3-methyl-morpholin-4-yl)-6-trifluoromethyl-6,7,8,9-tetrahydro-pyrimido[1,2-a]-pyrimidin-4-one]
< 10 | CC(=O)CN1c2nc(N3CCOC[C@H]3C)cc(=O)n2CC[C@@]1(C)C(F)(F)F [Example 327, (S)-8-Methyl-2-((R)-3-methylmorpholin-4-yl)-9-(2-oxopropyl)-8-trifluoromethyl-6,7,8,9-tetrahydropyrimido-[1,2-a]pyrimidin-4-one]
< 10 | C[C@@H]1COCCN1c1cc(=O)n2c(n1)N(c1ccc(C(F)F)nc1)C(C(F)(F)F)CC2 (stereo partly drawn) [Example 134, 9-(6-Difluoromethyl-pyridin-3-yl)-2-((R)-3-methylmorpholin-4-yl)-8-trifluoromethyl-6,7,8,9-tetrahydro-pyrimido[1,2-a]-pyrimidin-4-one]
< 10 | C[C@@H]1COCCN1c1cc(=O)n2c(n1)N(c1ccnc(C3CC3)c1)[C@H](C(F)(F)F)CC2 [Example 89, (S)-9-(2-Cyclopropyl-pyridin-4-yl)-2-((R)-3-methylmorpholin-4-yl)-8-trifluoromethyl-6,7,8,9-tetrahydro-pyrimido[1,2-a]-pyrimidin-4-one]
< 10 | C[C@@H]1COCCN1c1cc(=O)n2c(n1)N(c1ccc(C3CC3)nc1)[C@H](C(F)(F)F)CC2 [Example 302, (S)-9-(6-Cyclopropyl-pyridin-3-yl)-2-((R)-3-methylmorpholin-4-yl)-8-trifluoromethyl-6,7,8,9-tetrahydro-pyrimido[1,2-a]-pyrimidin-4-one]
< 10 | CCC(=O)CN1c2nc(N3CCOC[C@H]3C)c(F)c(=O)n2CC[C@H]1C(F)(F)F [Example 22, (S)-3-Fluoro-2-((R)-3-methylmorpholin-4-yl)-9-(2-oxobutyl)-8-trifluoromethyl-6,7,8,9-tetrahydro-pyrimido[1,2-a]-pyrimidin-4-one]
< 10 | C[C@@H]1COCCN1c1cc(=O)n2c(n1)N(CC(=O)N1CCCCO1)[C@H](C(F)(F)F)CC2 [Example 318, (S)-2-((R)-3-Methyl-morpholin-4-yl)-9-(2-[1,2]oxazinan-2-yl-2-oxoethyl)-8-trifluoromethyl-6,7,8,9-tetrahydropyrimido-[1,2-a]pyrimidin-4-one]
< 10 | C[C@@H]1COCCN1c1cc(=O)n2c(n1)N(CC(=O)c1cccc(F)n1)[C@H](C(F)(F)F)CC2 [Example 63, (S)-9-[2-(6-Fluoro-pyridin-2-yl)-2-oxo-ethyl]-2-((R)-3-methyl-morpholin-4-yl)-8-trifluoromethyl-6,7,8,9-tetrahydro-pyrimido[1,2-a]-pyrimidin-4-one]
< 10 | C[C@@H]1COCCN1c1cc(=O)n2c(n1)N(Cc1cocn1)[C@H](C(F)(F)F)CC2 [Example 103, (S)-2-((R)-3-Methyl-morpholin-4-yl)-9-oxazol-4-ylmethyl-8-trifluoromethyl-6,7,8,9-tetrahydro-pyrimido[1,2-a]-pyrimidin-4-one]
< 10 | C[C@@H]1COCCN1c1cc(=O)n2c(n1)N(CC(=O)C1CCOCC1)[C@H](C(F)(F)F)CC2 [Example 245, (S)-2-((R)-3-Methyl-morpholin-4-yl)-9-[2-oxo-2-(tetrahydro-pyran-4-yl)ethyl]-8-trifluoromethyl-6,7,8,9-tetrahydro-pyrimido[1,2-a]-pyrimidin-4-one]
< 10 | CCC(C)C(=O)CN1c2nc(N3CCOC[C@H]3C)cc(=O)n2CC[C@H]1C(F)(F)F (stereo partly drawn) [Example 291, (S)-2-((R)-3-Methyl-morpholin-4-yl)-9-(3-methyl-2-oxo-pentyl)-8-trifluoromethyl-6,7,8,9-tetrahydro-pyrimido[1,2-a]-pyrimidin-4-one]
< 10 | C[C@@H]1COCCN1c1cc(=O)n2c(n1)N(C/C(=N/O)C1CC1)[C@H](C(F)(F)F)CC2 (single isomer, unassigned) [Example 305]
< 10 | C[C@@H]1COCCN1c1nc2n(c(=O)c1F)[C@@H](C(F)(F)F)CCN2CC(=O)C1CC1 [Example 120, (R)-9-(2-Cyclopropyl-2-oxoethyl)-3-fluoro-2-((R)-3-methyl-morpholin-4-yl)-6-trifluoromethyl-6,7,8,9-tetrahydro-pyrimido[1,2-a]-pyrimidin-4-one]
